Test results published in ChEMBL document CHEMBL1154393, “Neuroprotective and cholinergic properties of multifunctional glutamic acid derivatives for the treatment of Alzheimer's disease” (J Med Chem, 2009).

Assays:
Acetylcholinesterase [1] = biological target: T1, Acetylcholinesterase (Homo sapiens, UniProt P22303); assay: Displacement of propidium iodide from AChE peripheral anionic site at 1 uM
Acetylcholinesterase [2] = biological target: T1, Acetylcholinesterase; assay: Displacement of propidium iodide from AChE peripheral anionic site at 0.3 uM
SH-SY5Y [3] = assay: Neuroprotective activity against human SH-SY5Y cells assessed as protection reduction in H2O2-induced LDH release at 30 uM after 24 hrs; assay type: functional; design: scale not given: the % may be the effect or the level left
SH-SY5Y [4] = assay: Neuroprotective activity against human SH-SY5Y cells assessed as protection reduction in H2O2-induced LDH release at 3 uM after 24 hrs; assay type: functional; design: scale not given: the % may be the effect or the level left
Acetylcholinesterase [5] = biological target: T1, Acetylcholinesterase; assay: Displacement of propidium iodide from AChE peripheral anionic site at 3 uM
Acetylcholinesterase [6] = biological target: T2, Acetylcholinesterase (Bos taurus, UniProt P23795)
T2 sequence (P23795 whole entry): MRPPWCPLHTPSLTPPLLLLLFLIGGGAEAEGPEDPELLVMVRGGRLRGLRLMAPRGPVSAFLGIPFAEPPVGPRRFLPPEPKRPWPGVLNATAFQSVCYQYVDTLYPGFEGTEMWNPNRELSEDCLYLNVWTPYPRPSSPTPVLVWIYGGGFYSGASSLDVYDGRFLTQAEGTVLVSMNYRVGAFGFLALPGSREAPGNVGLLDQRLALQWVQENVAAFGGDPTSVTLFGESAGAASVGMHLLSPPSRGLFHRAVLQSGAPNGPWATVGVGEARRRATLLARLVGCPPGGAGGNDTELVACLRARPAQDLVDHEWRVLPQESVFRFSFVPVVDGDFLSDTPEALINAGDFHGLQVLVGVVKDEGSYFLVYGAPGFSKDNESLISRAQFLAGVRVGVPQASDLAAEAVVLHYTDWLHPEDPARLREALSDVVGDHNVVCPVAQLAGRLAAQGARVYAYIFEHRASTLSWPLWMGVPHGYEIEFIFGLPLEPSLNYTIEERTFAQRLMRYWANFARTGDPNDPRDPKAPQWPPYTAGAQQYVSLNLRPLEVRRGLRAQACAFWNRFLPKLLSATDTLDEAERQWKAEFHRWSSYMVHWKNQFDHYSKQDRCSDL
Description: Inhibition of AChE in bovine erythrocyte by Ellman method

in vitro = settings: PAMPA
Description: Permeability across PAMPA membrane

SH-SY5Y [7] = assay: Neuroprotective activity against human SH-SY5Y cells assessed as protection reduction in H2O2-induced LDH release at 10 uM after 24 hrs; assay type: functional; design: scale not given: the % may be the effect or the level left
SH-SY5Y [8] = assay: Neuroprotective activity against human SH-SY5Y cells assessed as protection reduction in H2O2-induced LDH release at 1 uM after 24 hrs; assay type: functional; design: scale not given: the % may be the effect or the level left
Cholinesterase [9] = biological target: Cholinesterase (Homo sapiens, UniProt P06276); assay: Inhibition of human BuChE in serum; assay type: cell-free
Cholinesterase [10] = biological target: Cholinesterase (Equus caballus, UniProt P81908)
Description: Inhibition of BuChE in horse serum by Ellman method

SH-SY5Y [11] = assay: Neuroprotective activity against H2O2-induced human SH-SY5Y cells assessed as cell viability at 30 uM after 24 hrs; assay type: functional; settings: read-out: Activity
Acetylcholinesterase [12] = biological target: T1, Acetylcholinesterase
Description: Inhibition of human AChE in erythrocyte

SH-SY5Y [13] = assay: Neuroprotective activity against human SH-SY5Y cells assessed as cytoprotection at 0.3 uM coincubated with rotenone/oligomycin A measured after 24 hrs; assay type: functional
SH-SY5Y [14] = assay: Neuroprotective activity against rotenone/oligomycin A-treated human SH-SY5Y cells assessed as cytoprotection at 1 uM pretreated 24 hrs before rotenone/oligomycin A challenge; assay type: functional
SH-SY5Y [15] = assay: Neuroprotective activity against rotenone/oligomycin A-treated human SH-SY5Y cells assessed as cytoprotection at 0.3 uM pretreated 24 hrs before rotenone/oligomycin A challenge; assay type: functional
SH-SY5Y [16] = assay: Neuroprotective activity against rotenone/oligomycin A-treated human SH-SY5Y cells assessed as cytoprotection at 0.1 uM pretreated 24 hrs before rotenone/oligomycin A challenge; assay type: functional
SH-SY5Y [17] = assay: Neuroprotective activity against human SH-SY5Y cells assessed as cytoprotection at 1 uM coincubated with rotenone/oligomycin A measured after 24 hrs; assay type: functional
SH-SY5Y [18] = assay: Neuroprotective activity against human SH-SY5Y cells assessed as cytoprotection at 0.1 uM coincubated with rotenone/oligomycin A measured after 24 hrs; assay type: functional
SH-SY5Y [19] = assay: Neuroprotective activity against human SH-SY5Y cells assessed as cytoprotection at 3 uM coincubated with rotenone/oligomycin A measured after 24 hrs; assay type: functional
SH-SY5Y [20] = assay: Neuroprotective activity against rotenone/oligomycin A-treated human SH-SY5Y cells assessed as cytoprotection at 3 uM pretreated 24 hrs before rotenone/oligomycin A challenge; assay type: functional

Sequence of Cholinesterase (Equus caballus, UniProt P81908) (P81908 whole entry): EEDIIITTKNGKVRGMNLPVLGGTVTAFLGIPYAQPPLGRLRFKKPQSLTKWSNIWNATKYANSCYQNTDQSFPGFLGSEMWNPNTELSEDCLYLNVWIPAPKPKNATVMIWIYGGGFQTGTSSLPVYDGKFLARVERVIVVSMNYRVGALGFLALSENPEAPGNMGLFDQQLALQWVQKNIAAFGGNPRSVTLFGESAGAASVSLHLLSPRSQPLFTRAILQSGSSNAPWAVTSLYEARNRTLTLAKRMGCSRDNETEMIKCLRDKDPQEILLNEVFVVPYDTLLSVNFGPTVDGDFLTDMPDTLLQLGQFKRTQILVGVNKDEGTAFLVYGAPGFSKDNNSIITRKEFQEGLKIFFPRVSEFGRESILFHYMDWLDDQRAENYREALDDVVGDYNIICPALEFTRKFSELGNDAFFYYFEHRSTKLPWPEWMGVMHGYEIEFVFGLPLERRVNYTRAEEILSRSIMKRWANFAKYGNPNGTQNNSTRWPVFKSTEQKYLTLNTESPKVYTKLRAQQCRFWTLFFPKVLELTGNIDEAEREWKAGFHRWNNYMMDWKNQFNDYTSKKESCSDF
Sequence of Cholinesterase (Homo sapiens, UniProt P06276) (P06276 whole entry): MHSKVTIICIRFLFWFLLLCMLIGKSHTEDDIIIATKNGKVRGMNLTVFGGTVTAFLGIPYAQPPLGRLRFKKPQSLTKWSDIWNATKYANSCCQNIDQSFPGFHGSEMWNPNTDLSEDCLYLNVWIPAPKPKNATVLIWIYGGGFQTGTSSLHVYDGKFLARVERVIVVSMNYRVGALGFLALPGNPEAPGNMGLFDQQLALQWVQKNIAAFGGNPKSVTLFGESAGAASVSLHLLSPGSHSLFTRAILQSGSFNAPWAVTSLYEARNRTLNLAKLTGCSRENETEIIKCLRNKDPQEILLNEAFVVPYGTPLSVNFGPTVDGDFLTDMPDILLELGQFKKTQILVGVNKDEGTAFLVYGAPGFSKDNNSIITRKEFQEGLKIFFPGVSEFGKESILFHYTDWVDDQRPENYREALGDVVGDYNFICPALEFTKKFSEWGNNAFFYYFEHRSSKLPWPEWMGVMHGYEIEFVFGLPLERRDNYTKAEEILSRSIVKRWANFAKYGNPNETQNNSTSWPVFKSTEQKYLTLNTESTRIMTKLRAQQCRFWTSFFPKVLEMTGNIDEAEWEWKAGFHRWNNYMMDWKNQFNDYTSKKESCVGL
T1 sequence (P22303 whole entry): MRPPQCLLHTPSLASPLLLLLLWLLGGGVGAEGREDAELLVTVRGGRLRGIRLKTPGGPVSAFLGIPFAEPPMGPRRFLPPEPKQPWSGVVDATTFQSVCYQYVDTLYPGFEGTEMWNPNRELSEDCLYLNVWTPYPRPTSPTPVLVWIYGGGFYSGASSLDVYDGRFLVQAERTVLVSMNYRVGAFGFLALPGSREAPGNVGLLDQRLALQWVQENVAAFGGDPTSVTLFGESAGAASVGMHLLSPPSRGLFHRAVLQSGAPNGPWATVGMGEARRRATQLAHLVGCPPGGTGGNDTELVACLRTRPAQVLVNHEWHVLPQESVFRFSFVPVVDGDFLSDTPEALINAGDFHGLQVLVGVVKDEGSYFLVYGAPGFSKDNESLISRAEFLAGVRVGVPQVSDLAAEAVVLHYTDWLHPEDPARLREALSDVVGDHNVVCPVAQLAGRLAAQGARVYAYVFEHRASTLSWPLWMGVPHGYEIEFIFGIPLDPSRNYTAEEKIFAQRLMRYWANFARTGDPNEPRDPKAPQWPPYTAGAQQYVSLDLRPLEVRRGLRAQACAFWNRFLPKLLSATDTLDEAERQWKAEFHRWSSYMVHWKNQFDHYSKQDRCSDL

CCCCCCOC(=O)[C@H](CCC(=O)NCCC1CCN(Cc2ccccc2)CC1)NC(=O)c1cc2ccccc2s1
Activity (Acetylcholinesterase [1]): 26.5% | Activity (Acetylcholinesterase [2]): 31.5% | Activity (SH-SY5Y [3]): 17.9% | Activity (SH-SY5Y [4]): 20.9% | Activity (Acetylcholinesterase [5]): 39.7% | IC50 (Acetylcholinesterase [6]): 2500 nM | Papp (in vitro): 25.6 ×10⁻⁶ cm/s | Activity (SH-SY5Y [7]): 21.2% | Activity (SH-SY5Y [8]): 28.7% | IC50 (Cholinesterase [9]): 330 nM | IC50 (Cholinesterase [10]): 550 nM | viability at 30 µM (SH-SY5Y [11]): 100% | IC50 (Acetylcholinesterase [12]): 270 nM

CCCCCCOC(=O)[C@H](CCC(=O)NCCC1CCN(Cc2ccccc2)CC1)NC(=O)c1cc2cccnc2s1
Activity (Acetylcholinesterase [1]): 35.4% | Activity (Acetylcholinesterase [2]): 37.4% | Activity (SH-SY5Y [3]): 48.8% | Activity (SH-SY5Y [4]): 30.7% | Activity (Acetylcholinesterase [5]): 27.2% | IC50 (Acetylcholinesterase [6]): 330 nM | Papp (in vitro): 18.8 ×10⁻⁶ cm/s | Activity (SH-SY5Y [7]): 27.9% | Activity (SH-SY5Y [8]): 0% | IC50 (Cholinesterase [9]): 830 nM | IC50 (Cholinesterase [10]): 950 nM | viability at 30 µM (SH-SY5Y [11]): 100% | IC50 (Acetylcholinesterase [12]): 440 nM

CCCCCCOC(=O)[C@H](CCC(=O)NCCC1CCN(Cc2ccccc2)CC1)NC(=O)OCc1ccccc1
Activity (Acetylcholinesterase [1]): 25% | Activity (Acetylcholinesterase [2]): 20.8% | Activity (SH-SY5Y [3]): 5.3% | Activity (SH-SY5Y [4]): 17.4% | Activity (Acetylcholinesterase [5]): 29.3% | IC50 (Acetylcholinesterase [6]): 1400 nM | Activity (SH-SY5Y [7]): 39.1% | Activity (SH-SY5Y [8]): 4.1% | IC50 (Cholinesterase [9]): 730 nM | IC50 (Cholinesterase [10]): 750 nM | viability at 30 µM (SH-SY5Y [11]): 100% | IC50 (Acetylcholinesterase [12]): 250 nM

CCCCCCOC(=O)[C@H](CCC(=O)NCCC1CCN(Cc2ccccc2)CC1)NC(=O)OC(C)(C)C
Activity (Acetylcholinesterase [1]): 43.6% | Activity (Acetylcholinesterase [2]): 42.3% | Activity (SH-SY5Y [3]): 0% | Activity (SH-SY5Y [4]): 1.7% | Activity (Acetylcholinesterase [5]): 42% | IC50 (Acetylcholinesterase [6]): 5000 nM | Papp (in vitro): 11.6 ×10⁻⁶ cm/s | Activity (SH-SY5Y [7]): 0% | Activity (SH-SY5Y [8]): 24.9% | IC50 (Cholinesterase [9]): 3000 nM | IC50 (Cholinesterase [10]): 3500 nM | viability at 30 µM (SH-SY5Y [11]): 100% | IC50 (Acetylcholinesterase [12]): 950 nM

CCCCCCOC(=O)[C@H](CCC(=O)NCCC1CCN(Cc2ccccc2)CC1)NC(=O)c1cccs1
Activity (Acetylcholinesterase [1]): 10.3% | Activity (SH-SY5Y [13]): 0% | Activity (Acetylcholinesterase [2]): 7.5% | Activity (SH-SY5Y [3]): 31.8% | Activity (SH-SY5Y [4]): 64.5% | Activity (SH-SY5Y [14]): 22.3% | Activity (Acetylcholinesterase [5]): 15% | Activity (SH-SY5Y [15]): 27.1% | IC50 (Acetylcholinesterase [6]): 3500 nM | Papp (in vitro): 20.9 ×10⁻⁶ cm/s | Activity (SH-SY5Y [7]): 73% | Activity (SH-SY5Y [16]): 48.9% | Activity (SH-SY5Y [17]): 7% | Activity (SH-SY5Y [8]): 55.1% | IC50 (Cholinesterase [9]): 1800 nM | IC50 (Cholinesterase [10]): 1000 nM | viability at 30 µM (SH-SY5Y [11]): 100% | IC50 (Acetylcholinesterase [12]): 500 nM | Activity (SH-SY5Y [18]): 0%

CCCCCCOC(=O)[C@H](CCC(=O)NCCC1CCN(Cc2ccccc2)CC1)NC(=O)c1cc2ccsc2s1
Activity (Acetylcholinesterase [1]): 33.3% | Activity (SH-SY5Y [13]): 20.8% | Activity (Acetylcholinesterase [2]): 42.2% | Activity (SH-SY5Y [3]): 20.3% | Activity (SH-SY5Y [4]): 41.6% | Activity (SH-SY5Y [14]): 45.4% | Activity (Acetylcholinesterase [5]): 23.3% | Activity (SH-SY5Y [15]): 46.1% | IC50 (Acetylcholinesterase [6]): 3500 nM | Papp (in vitro): 28.5 ×10⁻⁶ cm/s | Activity (SH-SY5Y [7]): 46.4% | Activity (SH-SY5Y [16]): 34.8% | Activity (SH-SY5Y [17]): 30.8% | Activity (SH-SY5Y [8]): 54.5% | IC50 (Cholinesterase [9]): 350 nM | IC50 (Cholinesterase [10]): 700 nM | viability at 30 µM (SH-SY5Y [11]): 100% | IC50 (Acetylcholinesterase [12]): 300 nM | Activity (SH-SY5Y [18]): 22.3%

Cc1c(C)c2c(c(C)c1O)CCC(C)(C(=O)O)O2 (centres undefined) [TROLOX]
Activity (SH-SY5Y [3]): 57.7% | Activity (SH-SY5Y [4]): 0% | Activity (SH-SY5Y [19]): 63.7% | Activity (SH-SY5Y [8]): 0% | Activity (SH-SY5Y [20]): 65.1%

CCCCCCOC(=O)[C@H](CCC(=O)NCCC1CCN(Cc2ccccc2)CC1)NC(=O)c1ccccc1
Activity (Acetylcholinesterase [1]): 15.9% | Activity (SH-SY5Y [13]): 20.1% | Activity (Acetylcholinesterase [2]): 24.7% | Activity (SH-SY5Y [3]): 67% | Activity (SH-SY5Y [4]): 68.1% | Activity (SH-SY5Y [14]): 43.8% | Activity (Acetylcholinesterase [5]): 37.3% | Activity (SH-SY5Y [15]): 47.9% | IC50 (Acetylcholinesterase [6]): 1900 nM | Papp (in vitro): 18.7 ×10⁻⁶ cm/s | Activity (SH-SY5Y [19]): 15.1% | Activity (SH-SY5Y [7]): 52.4% | Activity (SH-SY5Y [17]): 21% | Activity (SH-SY5Y [8]): 43.9% | IC50 (Cholinesterase [9]): 1750 nM | IC50 (Cholinesterase [10]): 1500 nM | viability at 30 µM (SH-SY5Y [11]): 100% | IC50 (Acetylcholinesterase [12]): 530 nM | Activity (SH-SY5Y [20]): 38.5%

CCCCCCOC(=O)[C@H](CCC(=O)NCCC1CCN(Cc2ccccc2)CC1)NC(=O)Cc1cc2ccc(Cl)cc2s1
Activity (Acetylcholinesterase [1]): 16% | Activity (Acetylcholinesterase [2]): 14.7% | Activity (SH-SY5Y [3]): 0% | Activity (SH-SY5Y [4]): 32.5% | Activity (Acetylcholinesterase [5]): 23.4% | IC50 (Acetylcholinesterase [6]): 2300 nM | Activity (SH-SY5Y [7]): 0% | Activity (SH-SY5Y [8]): 26.2% | IC50 (Cholinesterase [9]): 70 nM | IC50 (Cholinesterase [10]): 50 nM | viability at 30 µM (SH-SY5Y [11]): 100% | IC50 (Acetylcholinesterase [12]): 100 nM

C=CC[N+](C)(C)c1ccc(CCC(=O)CCc2ccc([N+](C)(C)CC=C)cc2)cc1
Activity (Acetylcholinesterase [5]): 16%

CCCCCCOC(=O)[C@H](CCC(=O)NCCC1CCN(Cc2ccccc2)CC1)NC(=O)c1cc(Br)cs1
Activity (Acetylcholinesterase [1]): < 0.5% | Activity (SH-SY5Y [13]): 19.7% | Activity (Acetylcholinesterase [2]): 11.3% | Activity (SH-SY5Y [3]): 66.7% | Activity (SH-SY5Y [4]): 84.3% | Activity (SH-SY5Y [14]): 27.8% | Activity (Acetylcholinesterase [5]): < 0.5% | Activity (SH-SY5Y [15]): 19% | IC50 (Acetylcholinesterase [6]): 1200 nM | Activity (SH-SY5Y [19]): 19.6% | Activity (SH-SY5Y [7]): 66.7% | Activity (SH-SY5Y [17]): 0% | Activity (SH-SY5Y [8]): 63.3% | IC50 (Cholinesterase [9]): 850 nM | IC50 (Cholinesterase [10]): 750 nM | viability at 30 µM (SH-SY5Y [11]): 100% | IC50 (Acetylcholinesterase [12]): 180 nM | Activity (SH-SY5Y [20]): 21.4%
